Test results: patent publication US20210275543A1, “METHODS FOR THE TREATMENT OF MITOCHONDRIAL GENETIC DISEASES” (NSERM (INSTITUT NATIONAL DE LA SANTÉ ET DE LA RECHERCHE …, priority 2017, published 2021)

What was measured:
[1] = system: primary dermal fibroblasts from patients with mitochondrial disorders and controls; test: Analysis of mitochondrial membrane potential and morphology (TMRE / 10-NAO staining, confocal microscopy and flow cytometry); type: cell-based, human
Experimental: (§1) Punch skin biopsies were collected using standard methods.
(§2) To generate dermal fibroblast cultures, biopsies were minced and incubated at room temperature in 0.05% trypsin-EDTA (ThermoFisher 25300054) solution for 30 min with gentle shaking. Cells were collected by centrifuging at 700 g for 10 min, re-suspended in cell culture media containing 25% FBS, and plated onto 24 well plates to establish lines. Fibroblast cultures were grown and maintained in 1×MEM (Corning 10-010-CV) supplemented with 25% FBS and penicillin/streptomycin (Corning 30-001-CI) to a final concentration of 100 IU penicillin and 500 μg/mL streptomycin.
Cells at similar population doubling (PD-10+/−2) were plated 1:4 from confluent cultures onto coverglass chamberslides and allowed to grow until ˜80% confluent. Media was replaced and supplemented with […] BYL719 (Chem Express) in DMSO (Fisher BP321-1), or equal volume DMSO, for 48 hours. Cells were stained for 15 min in media with 100 nM tetramethylrhodamine ethyl ester (TMRE, Fisher BDB564696) and 5 μg/mL Hoechst 33342 (Biotium 89139-126) and imaged on a Leica SP5 confocal microscope. Samples were treated and imaged in one session using identical imaging parameters. Flow cytometry analysis was performed by staining cells with only TMRE or 10-N-nonyl acridine orange (10-NAO), dissociating with trypsin-EDTA containing dye for 10 min at room temperature, collecting cells by centrifugation, resuspension in cold PBS, and analysis on a BD Canto II flow cytometer using 488 nm excitation with 585/42 BP and 530/30 BP filters for TMRE and 10-NAO, respectively. A single gate was set to cells using forward and side scatter and all settings unchanged throughout data collection. 10,000 or more events were collected for every sample.

Ndufs4−/− mice = test: PIK3CA inhibition in Ndufs4 knockout mouse model of Leigh syndrome (survival); type: in vivo; conditions: 50 mg·kg-1 daily p.o.
Text: Leigh Syndrome is a severe mitochondrial disease that occurs in about 1:40,000 newborns and is associated with retarded growth, muscular deficits including myopathy and dyspnea, lactic acidosis, and a characteristic progressive necrotizing encephalopathy of the vestibular nuclei, cerebellum, and olfactory bulb (Budde et al., 2002). Ndufs4 encodes a subunit of Complex I of the mitochondrial electron transport chain; mutations in the NDUFS4 gene cause LS in humans (Budde et al., 2000), and the Ndufs4 knockout mouse is a murine model of LS (Kruse et al., 2008). Ndufs4−/− mice have decreased Complex I levels and activity in multiple tissues and show severe and progressive symptoms of mitochondrial disease that mirror human LS. LS results in death at an average of […] in humans, and Ndufs4 KO mice show a similar early-life mortality with an average lifespan of just 60 days. Heterozygous Ndufs4 knockout mice on a C57Bl/6NIA background were bred to produce homozygous KO animals. Animals were fed ad libitum and housed at a constant ambient temperature in a 12-hour light cycle. Animal procedures were approved by the “Services Vétérinaires de la Prefecture de Police de Paris” Departmental Director and by the ethical committee of the Paris Descartes University.
At the age of 21 days, Ndufs4−/− mice were treated with the PI3KCA inhibitor, BYL719 (MedChem Express; 50 mg·kg-1 in 0.5% carboxymethylcellulose (Sigma Aldrich), daily p.o.) (n=9) or vehicle (0.5% carboxymethylcellulose (Sigma Aldrich), daily p.o.) (n=8).

[2] = system: phosphorylated ribosomal protein S6 (mTORC1 signaling); test: Analysis of S6 phosphorylation by western blotting in primary dermal fibroblasts; type: cell-based, human; conditions: for S6 phosphorylation (phosphorylated ribosomal protein S6 vs total rpS6, GAPDH): 48 hours of treatment, 5 μmol/L BYL719
Experimental: as §1, §2
Cells at similar population doubling (PD-10+/−2) were plated 1:4 from confluent cultures and allowed to grow until ˜80% confluent. Media was replaced with media containing 5 μmol/L BYL719 (Chem Express) in DMSO or equal volume DMSO for 48 hours. Cultures were rinsed with 1×PBS, treated for 10 min with 0.05% Trypsin, collected by centrifugation at 4° C., and pellets were flash frozen on dry ice. Protein lysates were collected by directly adding 1×RIPA buffer (Pierce 89900) containing protease and phosphatase inhibitors (Pierce PI78441) to cell pellets, sonicating in 10 one-second bursts, on ice, with an XL-2000 QSonica at maximum output, and centrifuging to remove cell debris. Protein concentration was determined by BCA assay (Pierce PI23228), equal protein run on 4-12% bis-tris 26 well NuPage midigels (Fisher WG1403), and transferred to nitrocellulose blots (Fisher IB23001). Blots were blocked in LICOR Odyssey blocking buffer (LICOR 427-40100), probed with primary antibodies anti-pS6, anti-S6, and anti-GAPDH (Cell Signaling 4858P, 2217S, and 2118S, respectively) followed by secondary antibody IRDye800 donkey anti-rabbit (LICOR 925-32213) and imaged using LICOR Odyssey Clx scanning imager as previously described^9. Data quantified using NIH ImageJ^11.

[3] = primary MELAS patient and control fibroblast lines, FIG. 1A

Row | Compound | mitochondrial membrane potential (TMRE staining intensity) and morphology (fragmentation, depolarized mitochondria) ([1]; MELAS fibroblasts, 48 hours, confocal microscopy, FIG. 1C) | membrane potential (TMRE) by flow cytometry ([1]; MELAS fibroblasts, flow cytometry, data not shown) | mitochondrial membrane potential (TMRE staining intensity) and morphology ([1]; control cells, 48 hours, confocal microscopy, FIG. 1C) | animal survival (Ndufs4−/− mice; Ndufs4−/− mice treated from age 21 days, vs vehicle, FIG. 2) | appearance of treated animals (Ndufs4−/− mice; Ndufs4−/− mice, 120 days later) | time alive (Ndufs4−/− mice; Ndufs4−/− mice, all placebo-treated mice died within 80 days) [days] | pS6 levels ([2]; all cell lines (patients with mitochondrial disorders and controls), 48 hours, FIGS. 1A and 1B) | S6 phosphorylation (phosphorylated ribosomal protein S6 vs total rpS6, GAPDH) ([2]; other mitochondrial disorders and control fibroblast lines, FIG. 1B) | S6 phosphorylation (phosphorylated ribosomal protein S6 vs total rpS6, GAPDH) [2, 3]
1 | Cc1nc(NC(=O)N2CCC[C@H]2C(N)=O)sc1-c1ccnc(C(C)(C)C(F)(F)F)c1 [BYL719, Alpelisib] | attenuated these phenotypes in all MELAS fibroblasts | rescue | no overt impact | dramatically improved animal survival | overtly normal appearance | ≥ 120 | reduced pS6 levels in all cell lines | inhibited S6 phosphorylation | inhibited S6 phosphorylation
2 | cyclosporin A |  |  |  |  |  |  |  |  | no significant impact
